Data set [1] is filed under the species Rattus norvegicus. In words: animal or person. Type of data set: functional.
Data set [2] is filed under the species Rattus norvegicus. In words: animal or person. In kind it is functional. This is another data set of the same source.
Data set [3] has as its target Cyclooxygenase (Rattus norvegicus) (UniProt P35355+Q63921). As to conditions: at 30 mg/kg.
The species entered for data set [4] is Rattus norvegicus. Briefly: animal or person. As to conditions: read-out: Inhibition.
For data set [5], the species on record is Rattus norvegicus. Briefly: animal or person. As to conditions: read-out: Inhibition. The source holds these as a separate data set.
The species named for data set [6] is Rattus norvegicus. In words: animal or person. Conditions: read-out: Inhibition. The source holds these as a separate data set.
A short description of data set [7]: in vivo. As to conditions: rat, po, 10 mg/kg.
A short description of data set [8]: in vivo. Conditions: rat.
Data set [9] concerns the target Prostaglandin G/H synthase 1 (Homo sapiens, UniProt P23219).
For data set [10], the species on record is Rattus norvegicus. In words: animal or person. Conditions: read-out: Inhibition. The source holds these as a separate data set.

Chain of Prostaglandin G/H synthase 1 (P23219 whole entry): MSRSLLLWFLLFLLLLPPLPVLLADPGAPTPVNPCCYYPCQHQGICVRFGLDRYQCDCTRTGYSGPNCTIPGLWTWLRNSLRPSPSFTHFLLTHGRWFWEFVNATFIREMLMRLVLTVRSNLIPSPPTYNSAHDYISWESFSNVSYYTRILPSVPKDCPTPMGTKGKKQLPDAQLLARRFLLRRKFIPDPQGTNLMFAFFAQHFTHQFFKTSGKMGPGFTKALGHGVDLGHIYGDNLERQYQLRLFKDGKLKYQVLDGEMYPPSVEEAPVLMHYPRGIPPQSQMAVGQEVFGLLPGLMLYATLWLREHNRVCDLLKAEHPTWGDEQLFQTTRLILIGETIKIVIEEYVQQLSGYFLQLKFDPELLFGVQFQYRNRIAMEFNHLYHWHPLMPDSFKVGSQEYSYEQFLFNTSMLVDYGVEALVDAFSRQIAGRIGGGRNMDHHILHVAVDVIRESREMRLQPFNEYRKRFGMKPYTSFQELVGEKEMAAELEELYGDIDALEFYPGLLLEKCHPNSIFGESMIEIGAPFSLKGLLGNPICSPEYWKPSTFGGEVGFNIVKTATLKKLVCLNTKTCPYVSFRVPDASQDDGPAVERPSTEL

`COc1c(Cl)cc(C2=C(c3ccc(S(C)(=O)=O)cc3)CC3(CC3)C2)cc1Cl`: the ED50 in the data set listed under Rattus norvegicus [1] is 32.7 mg/kg; in the data set filed under Rattus norvegicus [2] it was 0.52 mg/kg. Besides, the inhibition in data set [3] amounted to 44%. Further, the inhibition in vivo at 30 mg/kg in the data set listed under Rattus norvegicus [4] turned out to be 50%. Further, in the data set filed under Rattus norvegicus [5], the inhibition in vivo at 1 mg/kg amounted to 57%.

Take `CS(=O)(=O)c1ccc(C2=C(c3ccc(F)c(Cl)c3)CC3(CC3)C2)cc1`: the inhibition in [3] was found to be 38%.

For `CS(=O)(=O)c1ccc(C2=C(c3ccc(F)c(F)c3)CC3(CC3)C2)cc1`, in [3], the inhibition is 23%.

`CS(=O)(=O)c1ccc(C2=C(c3ccc(C(F)(F)F)cc3)CC3(CC3)C2)cc1` showed an inhibition in data set [3] of 35%.

`NS(=O)(=O)c1ccc(C2=C(c3ccc(F)c(F)c3)CC3(CC3)C2)cc1` displayed an inhibition in [3] of 18%.

`COc1ccc(C2=C(c3ccc(S(C)(=O)=O)cc3)CC3(CC3)C2)cc1F` yielded an inhibition in data set [3] of 30%. In addition, the inhibition in vivo at 2 mg/kg in the data set filed under Rattus norvegicus [6] was found to be 63%. Besides, in the data set filed under Rattus norvegicus [4], the inhibition in vivo at 30 mg/kg was 19%.

As for `CS(=O)(=O)c1ccc(C2=C(c3ccc(F)cc3)CC3(CCC3)C2)cc1`, in data set [3], the inhibition was 23%.

In the case of `CS(=O)(=O)c1ccc(C2=C(c3ccc(F)cc3)CC3(CC3)C2)cc1`, in the data set listed under Rattus norvegicus [2], the ED50 was found to be 0.3 mg/kg. In [3], this molecule displayed an inhibition of 49%. Besides, in the data set “in vivo [7]”, the bioavailability came to 58%. Moreover, the half-life in “in vivo [8]” was 2.3 h. Moreover, the inhibition in vivo at 30 mg/kg in the data set listed under Rattus norvegicus [4] amounted to 31%. For the same molecule, the inhibition in vivo at 1 mg/kg in the data set filed under Rattus norvegicus [5] worked out at 68%.

As to `NS(=O)(=O)c1ccc(C2=C(c3ccc(Cl)c(Cl)c3)CC3(CC3)C2)cc1`, in data set [9], the concentration for half-maximal inhibition (IC50) is 380 nM. The same molecule showed an ED50 in the data set filed under Rattus norvegicus [1] of 31.3 mg/kg. For the same molecule, the inhibition in vivo at 0.3 mg/kg in the data set listed under Rattus norvegicus [10] stood at 72%.

As for `CS(=O)(=O)c1ccc(C2=C(c3ccc(Cl)c(Cl)c3)CC3(CC3)C2)cc1`, in [3], the inhibition came to 23%.

On to `COc1ccc(C2=C(c3ccc(S(C)(=O)=O)cc3)CC3(CC3)C2)cc1`, for which, in [3], the inhibition is 0%.

For the molecule `CS(=O)(=O)c1ccc(C2=C(c3ccc(F)cc3)CCC2)cc1` [SC-57666], the bioavailability in the data set “in vivo [7]” was 11%. In addition, the half-life in the data set “in vivo [8]” is 1.6 h.

For `COc1ccc(C2=C(c3ccc(S(C)(=O)=O)cc3)CC3(CC3)C2)cc1Cl`, the ED50 in the data set filed under Rattus norvegicus [1] worked out at 27.7 mg/kg. Further, the inhibition in data set [3] came out at 42%. The inhibition in vivo at 2 mg/kg in the data set filed under Rattus norvegicus [6] was 12%. Further, the inhibition in vivo at 30 mg/kg in the data set listed under Rattus norvegicus [4] came out at 45%.

Regarding `NS(=O)(=O)c1ccc(C2=C(c3ccc(F)cc3)CC3(CC3)C2)cc1`, the figures for the ED50 in the data set listed under Rattus norvegicus [1] and in the data set listed under Rattus norvegicus [2] were 17.6 mg/kg and 0.24 mg/kg, respectively. In data set [3], this molecule displayed an inhibition of 60%. Further, the inhibition in vivo at 1 mg/kg in the data set filed under Rattus norvegicus [5] came out at 85%.

As for `COc1ccc(C2=C(c3ccc(S(N)(=O)=O)cc3)CC3(CC3)C2)cc1F`, the ED50 in the data set listed under Rattus norvegicus [1] was 40.8 mg/kg; in the data set filed under Rattus norvegicus [2] it was 0.08 mg/kg. Also, the inhibition in [3] turned out to be 40%. Also, in the data set filed under Rattus norvegicus [4], the inhibition in vivo at 30 mg/kg amounted to 38%. Also, the inhibition in vivo at 1 mg/kg in the data set filed under Rattus norvegicus [5] is 89%.

`NS(=O)(=O)c1ccc(C2=C(c3ccc(C(F)(F)F)cc3)CC3(CC3)C2)cc1`: the results for the ED50 in the data set listed under Rattus norvegicus [1] and in the data set listed under Rattus norvegicus [2] were 46.7 mg/kg and 0.04 mg/kg, respectively. Besides, in data set [3], the inhibition turned out to be 46%. The inhibition in vivo at 2 mg/kg in the data set listed under Rattus norvegicus [6] is 92%. For the same molecule, in the data set filed under Rattus norvegicus [4], the inhibition in vivo at 30 mg/kg was found to be 40%.

As for `CS(=O)(=O)c1ccc(C2=CC3(C=C2c2ccc(F)cc2)CC3)cc1`, in [9], the midpoint of inhibition, the IC50, lay at 1320 nM.

With `CS(=O)(=O)c1ccc(C2=C(c3ccc(OC(F)(F)F)cc3)CC3(CC3)C2)cc1`, the inhibition in [3] is 20%.

For the molecule `COc1ccc(C2=C(c3ccc(S(C)(=O)=O)cc3)CC3(CC3)C2)cc1Br`, the inhibition in data set [3] amounted to 21%.

Regarding `COc1ccc(C2=CC3(C=C2c2ccc(S(C)(=O)=O)cc2)CC3)cc1Cl`, it took 3380 nM to reach half-maximal inhibition in data set [9] (IC50).

As for `COc1ccc(C2=C(c3ccc(S(N)(=O)=O)cc3)CC3(CC3)C2)cc1Cl`, the ED50 in the data set filed under Rattus norvegicus [1] came to 35.4 mg/kg; in the data set listed under Rattus norvegicus [2], 0.21 mg/kg. The same molecule showed an inhibition in [3] of 47%. For the same molecule, in the data set filed under Rattus norvegicus [4], the inhibition in vivo at 30 mg/kg worked out at 47%. Besides, in the data set listed under Rattus norvegicus [5], the inhibition in vivo at 1 mg/kg worked out at 79%.

For orientation: ED50 means the dose that gives a 50% effect, or the effect in half of the subjects. Read a high ED50 as a need for a large dose. Usually inhibition stands for the relative decrease from the control value, in per cent. A word on the bioavailability: it is dose-corrected exposure relative to a reference, in per cent. A low value points to little systemic uptake. One may read the half-life as the time in which the quantity being followed falls by half. A low value points to rapid decline. The IC50 is the midpoint of a concentration-inhibition curve. Higher therefore signals lower potency.

Source of the values: ChEMBL document CHEMBL1129290 (J Med Chem, 1996).
